# According to patent US4464373A, “4,5-Dihydroimidazo-[1,2-a]quinoxaline-2-carboxylic acids and their derivatives with antiallergic activity” (Roussel Uclaf, priority 1982, dated 1984):
# System: passive cutaneous reaction mediated by Ig G antibodies
# Assay: Passive cutaneous anaphylaxis of the rat (PCR), Ig G mediated, oral
# Assay type: in vivo
# Conditions: male Wistar rats, ovalbumin challenge
# Protocol: Passive cutaneous anaphylaxis of the rat (PCR)
# Passive cutaneous anaphylaxis in the rat was carried out with male Wistar rats weighing 180-200 g which were sensitized by intradermal injection into four sites on the shaved back to produce a passive cutaneous reaction mediated by Ig G antibodies (a 4 hour sensitization following injection of antiserum heated at 56° C. for one hour). Antigen challenge was carried out in the same way; 1 mg of ovalbumen together with 0.5 ml of 1% Evans blue dye solution were injected intravenously and 30 minutes later, the animals were killed and the severity and area of each blue spot was scored when viewed from the reverse side of the skin.
SMILES,inhibition in vivo at 0.1 mg/kg [%],inhibition in vivo at 1 mg/kg [%]
"CCOC(=O)c1cn2c(n1)CN(C(=O)OCC)c1ccccc1-2 [Example 3, Diethyl 4,5-dihydroimidazo[1,2-a]quinoxaline-2,5-dicarboxylate]",26.3,67.5
"CCOC(=O)c1cn2c(n1)CN(C(=O)Nc1ccccc1)c1ccccc1-2 [Example 4, Ethyl 4,5-dihydro-5-(phenylcarboxamido)imidazo[1,2-a]quinoxaline-2-carboxylate]",,5.2
"CCOC(=O)c1cn2c(n1)CN(C(=O)NCCN1CCOCC1)c1ccccc1-2 [Example 5B, Ethyl 4,5-dihydro-5-(morpholinoethylcarboxamido)imidazo[1,2-a]quinoxaline-2-carboxylate]",,33.8
"COC(=O)N1Cc2nc(C(=O)O)cn2-c2ccccc21 [Example 6, 4,5-dihydro-5-(methoxycarbonyl)imidazo[1,2-a]quinoxaline-2-carboxylic acid]",19,61.1
"CCOC(=O)c1cn2c(n1)CN(C(C)=O)c1ccccc1-2 [Example 7, Ethyl 5-acetyl-4,5-dihydroimidazo[1,2-a]quinoxaline-2-carboxylate]",32.5,49.4
"CCOC(=O)c1cn2c(n1)CN(C(=O)OCc1ccccc1)c1ccccc1-2 [Example 8, Ethyl 4,5-dihydro-5-(benzyloxycarbonyl)imidazo[1,2-a]quinoxaline-2-carboxylate]",,14.3
"CCOC(=O)c1cn2c(n1)CN(C(=O)OC)c1ccccc1-2 [Example 9, Ethyl 4,5-dihydro-5-(methoxycarbonyl)imidazo[1,2-a]quinoxaline-2-carboxylate]",18.8,75.6
"CCCOC(=O)N1Cc2nc(C(=O)OCC)cn2-c2ccccc21 [Example 11, Ethyl 4,5-dihydro-5-(propyloxycarbonyl)imidazo[1,2-a]quinoxaline-2-carboxylate]",,44
"CCCCOC(=O)N1Cc2nc(C(=O)OCC)cn2-c2ccccc21 [Example 12, Ethyl 4,5-dihydro-5-(butyloxycarbonyl)imidazo[1,2-a]quinoxaline-2-carboxylate]",,26.2
"CCOC(=O)c1cn2c(n1)CN(C(=O)NCCN(CC)CC)c1ccccc1-2 [Example 14, Ethyl 4,5-dihydro-5-(diethylaminoethylcarboxamido)imidazo[1,2-a]quinoxaline-2-carboxylate]",16.8,42.8
